Data on 12 compounds can be found in patent US10472635B2, “Methods of treating brain edema” (priority 2015, dated 2019).

Like-named read-outs stand apart in the source and are kept apart here.

In one assay the test system is rat hippocampal slices. Kind of assay: LDH release cell death assay in hippocampal slices. The class given is cell-based. Conditions: for effect on veratridine-induced cell death (LDH release): 50 μM veratridine.
Assay [1] deals with cortical neurons in brain slices. In words: Neuronal swelling imaging assay in brain slices (cross sectional area of CoroNa-stained soma, two-photon). In kind it is cell-based, rat. Conditions: for magnitude of neuronal swelling: veratridine-induced, blockers present, without vs with pre-applied picrotoxin (100 μM).
Assay [2] has as its system voltage-dependent Cl^− current in layer 4 cortical neurons. In words: Whole-cell voltage clamp of depolarization-activated Cl- current. The class given is cell-based, rat. The conditions noted are these: depolarization to −20 mV or greater; cocktail of channel blockers; GlyH-101 by dialysis. Here is the method:
Electrophysiology: Whole-cell recordings were performed in the presence of antagonists of GABAA (10 μM picrotoxin), AMPA/kainite (10 μM 6-cyano-7-nitoquinoxaline-2,3-dione—CNQX), and NMDA (2R-amino-5-phosphonovaleric acid—APV) receptors. 60 μM cadmium, 50 μM nickel and 100 μM 4AP (4-aminopyridine) were used to block voltage-gated calcium channels and A-type potassium channels. Whole-cell voltage-clamp recordings from cortical neurons were carried out at room temperature while the recording chamber was perfused with ACSF at 1-1.5 ml min-1. Recordings were made using a MultiClamp 700B amplifier controlled by Clampex 10.2 via a Digidata 1440A data acquisition system with 3-5M ? glass electrodes. The pipette solution containing (in m ? ): 108 CsCl, 8 TEA-Cl, 8 NaGluc, 1 CsEGTA, 4 K-ATP, 0.3 Na-GTP, 10 Hepes, 2MgCl2 (pH 7.2 with CsOH, 286 mosmol 1-1). Normal ACSF contained (in mM): 126 NaCl, 26 NaHCO3, 10 glucose, 2 MgCl2, 1.25 NaH2PO4, 2.5 KCl, 2.0 CaCl2 (pH 7.25, 310 mosmol 1-1). NaCl was replaced with 126 mM Na-isethionate in the low-chloride ACSF. Recordings where the series resistance varied more than 10% were rejected. Data were analyzed with Clampfit 10.0.
The opening of Na^+ permeable channels causes both [Na^+]i accumulation and neuronal depolarization. […] However progressive accumulation of extracellular K^+ could lead to further depolarization of the membrane. […]

Another assay concerns CaCC. The conditions noted are these: cited from earlier work.
Another assay deals with Maxi-Anion Channel. The conditions noted are these: cited from earlier work.
A further assay deals with VRAC. The conditions noted are these: cited from earlier work.
The subject of assay [3] is neuronal [Na^+]i in brain slices. In words: Neuronal [Na+]i by CoroNa Green fluorescence / two-photon FLIM. In kind it is cell-based, rat.
Another assay concerns the target T1, NKCC1 (Homo sapiens, UniProt P55011).
T1 sequence (P55011 1-1212): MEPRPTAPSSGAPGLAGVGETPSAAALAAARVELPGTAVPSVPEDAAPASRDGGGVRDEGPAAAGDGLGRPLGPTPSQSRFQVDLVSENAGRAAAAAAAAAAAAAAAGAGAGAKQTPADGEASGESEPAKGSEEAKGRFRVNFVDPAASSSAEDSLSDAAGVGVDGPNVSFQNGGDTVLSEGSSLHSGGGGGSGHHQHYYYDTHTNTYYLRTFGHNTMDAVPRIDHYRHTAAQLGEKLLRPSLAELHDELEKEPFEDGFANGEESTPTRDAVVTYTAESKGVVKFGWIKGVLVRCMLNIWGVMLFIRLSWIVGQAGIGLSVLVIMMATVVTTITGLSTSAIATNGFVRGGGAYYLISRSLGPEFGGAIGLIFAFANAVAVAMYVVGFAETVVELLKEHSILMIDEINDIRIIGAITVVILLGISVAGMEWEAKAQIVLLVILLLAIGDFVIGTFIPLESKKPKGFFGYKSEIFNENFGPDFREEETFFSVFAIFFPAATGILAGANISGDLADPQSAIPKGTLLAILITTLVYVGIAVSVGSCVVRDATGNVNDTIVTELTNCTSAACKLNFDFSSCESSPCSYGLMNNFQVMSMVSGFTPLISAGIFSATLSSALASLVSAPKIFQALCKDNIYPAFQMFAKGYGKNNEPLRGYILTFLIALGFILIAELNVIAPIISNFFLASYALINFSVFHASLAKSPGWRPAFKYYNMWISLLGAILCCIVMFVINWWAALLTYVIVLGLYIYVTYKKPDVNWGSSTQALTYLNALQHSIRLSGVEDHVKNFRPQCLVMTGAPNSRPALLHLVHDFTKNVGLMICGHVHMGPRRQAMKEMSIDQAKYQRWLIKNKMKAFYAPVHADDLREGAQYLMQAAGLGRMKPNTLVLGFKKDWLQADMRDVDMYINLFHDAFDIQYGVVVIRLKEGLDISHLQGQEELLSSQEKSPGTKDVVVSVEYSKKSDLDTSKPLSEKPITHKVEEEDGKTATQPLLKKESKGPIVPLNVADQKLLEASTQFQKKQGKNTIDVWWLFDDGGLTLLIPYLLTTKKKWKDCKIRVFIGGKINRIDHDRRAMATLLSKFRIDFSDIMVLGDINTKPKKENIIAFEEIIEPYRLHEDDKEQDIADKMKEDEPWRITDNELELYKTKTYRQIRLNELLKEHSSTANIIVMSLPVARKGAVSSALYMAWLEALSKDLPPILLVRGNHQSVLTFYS
Conditions: cited from earlier work.

A further assay deals with T2, KCC2 (Homo sapiens, UniProt Q9H2X9).
T2 sequence (Q9H2X9 1-1139): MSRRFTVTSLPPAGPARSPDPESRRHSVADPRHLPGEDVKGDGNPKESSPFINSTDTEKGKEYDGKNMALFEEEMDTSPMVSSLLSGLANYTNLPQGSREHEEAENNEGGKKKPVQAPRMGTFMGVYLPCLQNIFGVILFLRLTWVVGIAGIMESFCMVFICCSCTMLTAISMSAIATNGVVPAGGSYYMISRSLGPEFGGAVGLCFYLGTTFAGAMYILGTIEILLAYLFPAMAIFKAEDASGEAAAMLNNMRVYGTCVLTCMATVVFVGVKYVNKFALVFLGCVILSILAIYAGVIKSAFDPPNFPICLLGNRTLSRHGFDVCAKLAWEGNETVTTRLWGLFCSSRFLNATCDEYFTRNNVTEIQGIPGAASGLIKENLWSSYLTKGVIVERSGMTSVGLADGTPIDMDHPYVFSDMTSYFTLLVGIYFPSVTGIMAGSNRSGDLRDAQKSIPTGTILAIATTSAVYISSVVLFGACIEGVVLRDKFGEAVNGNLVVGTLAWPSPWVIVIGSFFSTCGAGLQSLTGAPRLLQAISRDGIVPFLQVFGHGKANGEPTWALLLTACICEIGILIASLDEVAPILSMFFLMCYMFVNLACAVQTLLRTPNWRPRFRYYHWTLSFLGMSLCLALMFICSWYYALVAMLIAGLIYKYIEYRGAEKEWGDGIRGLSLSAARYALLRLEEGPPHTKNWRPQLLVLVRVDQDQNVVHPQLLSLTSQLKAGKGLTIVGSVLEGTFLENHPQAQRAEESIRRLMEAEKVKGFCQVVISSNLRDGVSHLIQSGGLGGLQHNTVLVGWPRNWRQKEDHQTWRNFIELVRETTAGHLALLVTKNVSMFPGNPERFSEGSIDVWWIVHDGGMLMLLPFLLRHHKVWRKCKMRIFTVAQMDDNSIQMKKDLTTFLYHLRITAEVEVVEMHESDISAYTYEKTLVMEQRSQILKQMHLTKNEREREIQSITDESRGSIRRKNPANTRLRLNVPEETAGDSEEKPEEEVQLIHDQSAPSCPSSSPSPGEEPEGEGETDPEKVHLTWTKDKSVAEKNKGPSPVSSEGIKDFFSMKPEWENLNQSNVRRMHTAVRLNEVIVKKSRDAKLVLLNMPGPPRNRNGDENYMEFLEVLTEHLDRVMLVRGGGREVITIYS
The conditions noted are these: cited from earlier work.

In the next assay the test system is Pannexins, Connexins. Conditions: cited from earlier work.
Another assay concerns the target CLC-2 (Homo sapiens, UniProt P51788). The conditions noted are these: cited from earlier work.
Setting [4] is: 22-24 °C, antagonist bath applied and in puffing pipette, DIDS 250 μM, NPPB 200 μM, TTX 1 μM.
Setting [5] is: pressure ejection, Cd2+, CNQX, picrotoxin present, d-APV with veratridine, TTX with NMDA.

CLC-2, sequence (P51788 whole entry): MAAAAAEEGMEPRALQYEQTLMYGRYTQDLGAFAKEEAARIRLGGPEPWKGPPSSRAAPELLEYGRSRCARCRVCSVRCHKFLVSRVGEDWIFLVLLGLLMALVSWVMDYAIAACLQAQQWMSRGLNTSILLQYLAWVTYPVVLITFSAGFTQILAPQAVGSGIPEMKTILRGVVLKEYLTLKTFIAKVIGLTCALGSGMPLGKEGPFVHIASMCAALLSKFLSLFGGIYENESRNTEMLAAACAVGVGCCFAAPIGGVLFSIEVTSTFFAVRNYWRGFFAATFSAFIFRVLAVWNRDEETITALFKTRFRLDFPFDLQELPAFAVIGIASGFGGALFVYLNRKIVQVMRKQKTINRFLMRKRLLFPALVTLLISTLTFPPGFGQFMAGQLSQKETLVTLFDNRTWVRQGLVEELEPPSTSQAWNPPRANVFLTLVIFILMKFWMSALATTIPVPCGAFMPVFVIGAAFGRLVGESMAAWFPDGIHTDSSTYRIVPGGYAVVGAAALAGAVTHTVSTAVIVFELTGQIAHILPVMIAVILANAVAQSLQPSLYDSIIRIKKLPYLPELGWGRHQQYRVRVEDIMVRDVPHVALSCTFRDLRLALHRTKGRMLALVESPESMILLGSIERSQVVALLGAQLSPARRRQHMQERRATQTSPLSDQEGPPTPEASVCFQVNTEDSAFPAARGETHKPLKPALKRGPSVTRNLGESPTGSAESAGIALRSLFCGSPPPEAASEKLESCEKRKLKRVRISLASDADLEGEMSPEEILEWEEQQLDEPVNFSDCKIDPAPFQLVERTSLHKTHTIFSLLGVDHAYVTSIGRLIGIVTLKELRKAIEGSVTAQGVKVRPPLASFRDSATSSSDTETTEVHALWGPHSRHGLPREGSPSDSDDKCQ

As for `O=C(CNc1ccc2ccccc2c1)N/N=C/c1cc(Br)c(O)c(Br)c1O` [GlyH-101], the “effect on veratridine-induced cell death (LDH release)” value with rat hippocampal slices is “profoundly inhibited”. The “effect on veratridine-induced neuronal swelling” value in assay [1] (setting [4]) was “profoundly inhibited”. The “effect on non-inactivating Cl- current elicited by depolarization” value in assay [2] is “inhibit”.

With `O=C(O)c1cccnc1Nc1cccc(C(F)(F)F)c1` [NFA, niflumic acid], the “concentration (antagonist sensitivity of channel/transporter)” value in the assay with CaCC is 50 to 100 µM.

Regarding `O=C(O)c1cc([N+](=O)[O-])ccc1NCCCc1ccccc1` [NPPB], the entries for the “concentration (antagonist sensitivity of channel/transporter)” value in the assay on Maxi-Anion Channel, in the assay on VRAC and in the assay on CaCC were 100 µM, 40 to 100 µM and 100 µM, respectively. The “effect on veratridine-induced cell death (LDH release)” value in the assay on rat hippocampal slices is “no effect”. For the same compound, the “effect on NMDA-induced cell death (LDH release), Ca2+-independent” value with rat hippocampal slices (NMDA in Ca2+ free extracellular solution) is given as “blocked by DIDS but not NPPB”. In addition, the “effect on veratridine-induced neuronal swelling” value in assay [1] (setting [4]) is given as “no protection”.

For the compound `CN[C@H](CC(=O)O)C(=O)O` [NMDA, N-Methyl-D-aspartic acid], the “LDH release (cell death) on application” value in the assay with rat hippocampal slices (15 min application, LDH after 90 min, veratridine 50 μM, NMDA 100 μM in 0 mM Ca2+, 2 mM EGTA, CNQX, picrotoxin, Cd2+ present) was “rapid and significant increase”. The “change in neuronal [Na+]i on application” value in assay [3] (setting [5]) is on record as “significant increase”. The “neuronal cross sectional area after NMDAR activation” value in [1] (extracellular Ca2+ free solution (0 mM Ca2+, 2 mM EGTA), TTX, Cd2+, CNQX, picrotoxin present) is 161.60±10.55 % of baseline; in [1] (extracellular Na+ replaced with NMDG (152 mM to 26 mM), normal Ca2+), 86.7 % of baseline. The “change in neuronal cell volume on application” value in assay [1] (setting [5]) is listed as “increase in neuronal cell volume”.

The Ki is the dissociation constant of the complex between target and ligand, obtained from inhibition or displacement. Turning to `CCCCNc1cc(C(=O)O)cc(S(N)(=O)=O)c1Oc1ccccc1` [Bumetanide, bumetanide], the values for the Ki at NKCC1 and on KCC2 were around 0.1 µM and 25 to 50 µM, respectively.

In the case of `CC1(C)[C@@H](OC(=O)CCC(=O)O)CC[C@]2(C)[C@H]3C(=O)C=C4[C@@H]5C[C@@](C)(C(=O)O)CC[C@]5(C)CC[C@@]4(C)[C@]3(C)CC[C@@H]12` [CBX, carbenoxelone], in the assay on Pannexins, Connexins, the “concentration (antagonist sensitivity of channel/transporter)” value is 100 µM.

Consider `N[C@H](CCCP(=O)(O)O)C(=O)O` [d-APV, 2R-amino-5-phosphonovaleric acid], for which the “effect on NMDA-induced [Na+]i increase” value in assay [3] (CoroNa signal, d-APV 100 μM) was “blocked”. Besides, the “effect on NMDA-induced neuronal swelling” value in assay [1] (DIDS 250 μM, 500 μM, 1 mM, d-APV 100 μM) was “blocked”.

As for `[Zn]` [Zinc], on CLC-2, the “concentration (antagonist sensitivity of channel/transporter)” value is 100 µM.

Consider `COc1ccc(C(=O)O[C@H]2CC[C@@]3(C)[C@@H]4CC[C@H]5[C@]6(O)C[C@H](O)[C@@]7(O)[C@@H](CN8C[C@@H](C)CC[C@H]8[C@@]7(C)O)[C@]6(O)C[C@@]53O[C@]24O)cc1OC` [veratridine], for which the “[Na+]i (calibrated value, CoroNa FLIM)” value in assay [3] (throughout veratridine application) is listed as “approximately 94.46±2.14 mM”. In assay [1], the “magnitude of neuronal swelling” value is 161.7%.

Turning to `NC1=N[C@H](O)[C@H]2[C@H]3O[C@]4(O)O[C@@H]([C@@H](O)[C@@]2(N1)[C@@H]4O)[C@]3(O)CO` [TTX, Tetrodotoxin], in assay [3], the “effect on veratridine-induced [Na+]i increase” value was “blocked”. Also, the “effect on veratridine-induced neuronal swelling” value in [1] is reported as “blocked”.

As for `[Gd+3]` [Gd^3+], the “concentration (antagonist sensitivity of channel/transporter)” value in the assay with Maxi-Anion Channel is 30 to 50 µM.

picrotoxin: the “magnitude of neuronal swelling” value in [1] is listed as 146.9%.
